≈ marks a conversion by molar mass, not a printed value. Read-outs that look alike come from different tables or passages of the source.
Columns and labels:
[1] = system: Sarcoma 180 ascites cells; assay: Effect on Sarcoma 180 carcinoma: intraperitoneal inoculation, mean survival days; format: in vivo, ICR-strain mice; settings: once a day for 7 days
Description: Sarcoma 180 ascites cells (1×10^6 cells/head) were inocualted intraperitoneally into ICR-strain mice (female, 6 weeks old, each group consisting of 4 or 5 mice), and after 24 hours, the intraperitoneal administration of a test drug was started, and effected once a day for 7 days. The effect thereof was judged from the mean survival days. The test drug was used in the form of a solution or suspension in a saline solution or a 0.3% carboxymethyl cellulose-containing saline solution. [formula]

[2] = system: Ehrlich ascites carcinoma cells; assay: Effect on Ehrlich carcinoma (i): intraperitoneal inoculation, mean survival days; format: in vivo, ICR-strain mice; settings: Mus musculus, ip, read-out: T/C (mean survival days)
Description: (i) Ehrlich ascites carcinoma cells (1×10^6 cells/head) were inoculated intraperitoneally into ICR-strain mice (female, 6 to 7 weeks old, each group consisting of 5 or 4 mice), and after 24 hours, the […] The effect thereof was judged from the mean survival days.
The test drugs were used in the form of a solution or suspension in a saline solution or a 0.3% carboxymethyl cellulose-containing saline solution. [formula]

L-1210 ascites cells [3] = assay: Effect on L-1210 leukemia (i): intraperitoneal inoculation, mean survival days; format: in vivo, BDF1-strain mice
Description: (§1) (i) L-1210 ascites cells (1×10^5 cells/head) were inoculated intraperitoneally into BDF1 -strain mice (female, 6 weeks old, each group consisting of 4 mice), and after 24 hours, the intraperitoneal administration of a test drug was started and effected once a day. The effect thereof was judged from the mean survival days. The test drug was used in the form of a solution or suspension in a saline solution or a 0.3% carboxymethyl cellulose-containing saline solution.
T/C was calculated in the same manner as in above b (i).

Acute toxicity = settings: mouse, in vivo, ip
From the text: The test drugs were used in the form of a solution or suspension in a saline solution or a 0.3% carboxymethyl cellulose-containing saline solution.

P-388 ascites cells [4] = assay: Effect on P-388 leukemia (i): intraperitoneal inoculation, mean survival days; format: in vivo, BDF1-strain mice; settings: 100 mg/kg, once a day for 7 days
Description: as §1, with “P-388” for “L-1210”, “(1×10^6” for “(1×10^5”, “day for 7 days.” for “day.”, “solution. T/C was calculated in the same manner as in above b(i).” for “solution.”

Ehrlich cells = assay: MIC value against Ehrlich cells (microplate method); format: cell-based; settings: 96 h, 2×10^4 cells/ml, 4 days, Giemsa staining
From the text: (§2) a. MIC value against HeLa S3 cells and Ehrlich cells (microplate method) Number of cells: 2×10^4 cells/ml Culture medium: Eagle's MEM+20% calf embryonic serum Culture time: 4 days Judgement: Giemsa staining

HeLa S3 cells = assay: MIC value against HeLa S3 cells (microplate method); format: cell-based; settings: Homo sapiens, 96 h, 2×10^4 cells/ml, 4 days, Giemsa staining
From the text: as §2

[5] = system: Ehrlich ascites carcinoma cells; assay: Effect on Ehrlich carcinoma (ii): subcutaneous inoculation at inguinal region, mean tumor weight; format: in vivo, ICR-strain mice; settings: 250 mg/kg, orally, once a day for 5 days, judgement day 15
Description: (ii) Ehrlich ascites carcinoma cells (4×10^6 cells/head) were inoculated subcutaneously at the inguinal region into ICR-strain mice (female, 6 to 7 weeks old, each group consisting of 5 or 4 mice), and after 24 hours, the intraperitaneal or oral administration of a test drug was started and effected once a day for 5 days. The effect thereof was judged from the mean weight of tumor on the 13th or 15th day, respectively.
The test drug was used in the form of a solution or suspension in a saline solution or a 0.3% carboxymethyl cellulose-containing saline solution. [formula]

[6] = system: Ehrlich ascites carcinoma cells; assay: Effect on Ehrlich carcinoma (iii): subcutaneous inoculation at right armpit, mean tumor weight; format: in vivo, ICR-strain mice; settings: once a day for 7 days, 14th day
Description: (iii) Ehrlich ascites carcinoma cells (4×10^6 cells/head) were inoculated subcutaneously at the right armpit region into ICR-strain mice (female, 7 weeks old, each group consisting of 6 or 7 mice), and after 24 hours, the oral administration or subcutaneous administration at the dorsal region of a test drug was started, and effected once a day for 7 days. The effect thereof was judged from the mean weight of the tumor on the 14th day. The test drug was used in the form of a solution or suspension in a saline solution or a 0.3% carboxymethyl cellulose-containing saline solution.
T/C was calculated in the same manner as in above (ii).

B-16 melanoma cells = assay: Effect on B-16 melanoma: subcutaneous inoculation, mean tumor weight; format: in vivo, BDF1-strain mice
Description: B-16 melanoma cells (1×10^6 cells/head) were inoculated subcutaneously at the right armpit region into BDF1 -strain mice (male, 7 weeks old, each group consisting of 8 mice), and after 24 hours, the oral administration or subcutaneous administration at the […] […] The test drug was used in the form of a suspension or solution in a 0.3% carboxymethyl cellulose-containing saline solution or dimethylsulfoxide-propylene glycol (1:1) mixture. T/C was calculated in the same manner as in above b(ii).

P-388 ascites cells [7] = assay: Effect on P-388 leukemia (ii): subcutaneous inoculation, mean tumor weight; format: in vivo, BDF1-strain mice; settings: oral, once a day for 7 days, 11th day
Description: (ii) P-388 ascites cells (1×10^6 cells/head) were inoculated subcutaneously at the right armpit into BDF1 -strain mice (male, 7 weeks old, each group consisting of 8 mice), and after 24 hours, the oral administration of a test drug was started, and effected once a day for 7 days. The effect thereof was judged from the mean weight of the tumor at the 11th day. The test drug was used in the form of a suspension or solution in a 0.3% carboxymethyl cellulose-containing saline solution or a dimethylsulfoxide-propylene glycolphosphate buffer (1:2:1) mixture. T/C was calculated in the same manner as in above b(ii).

[8] = system: Lewis lung carcinoma cells; assay: Effect on Lewis lung carcinoma: subcutaneous inoculation, average tumor weight; format: in vivo, BDF1-strain mice; settings: oral, once a day for 7 days, 21st day
Description: Lewis lung carcinoma cells (1×10^6 cells/head) were inoculated subcutaneously at the right armpit region into BDF1 -strain mice (male, 6 weeks old, each group consisting of 5 mice) and after 24 hours, the oral administration of a test drug was started and effected once a day for 7 days. The effect thereof was judged from the average weight of tumor on the 21st day. The test drug was used in the form of a suspension in a 0.3% carboxymethyl cellulose-containing saline solution. T/C was calculated in the same manner as in above b(ii).

L-1210 ascites cells [9] = assay: Effect on L-1210 leukemia (ii): subcutaneous inoculation, mean survival days and tumor weight; format: in vivo, BDF1-strain mice; settings: oral; for T/C Tumor Weight: 9th day
Description: (ii) L-1210 ascites cells (1×10^6 cells/head) were inoculated subcutaneously into BDF1 -strain mice (male, 6 weeks old, each group consisting of 4 mice), and after 24 hours, the oral administration of a test drug was started, and effected once a day for […]. The effect thereof was judged from the mean survival days and the weight of the tumor on the 9th day.
The test drug was used in the form of a suspension in a 0.3% carboxymethyl cellulose-containing saline solution. T/C was calculated in the same manner as in above b(i) and b(ii).

[10] = 100 mg/kg, orally, 7 administrations, 18th day
[11] = 100* mg/kg, orally, 7 administrations, 19th day, in dimethylsulfoxide-propylene glycol (1:1)

Row | SMILES | response vs control in vivo at 100 mg/kg ([2]; 168 h, once a day for 7 days) [%] | T/C (mean survival days) (L-1210 ascites cells [3]; 50 mg/kg, 9 administrations) [%] | T/C (mean survival days) (L-1210 ascites cells [3]; 200 mg/kg, 3 administrations) [%] | LD50 at 168 h (Acute toxicity) [mg/kg] | MIC (Ehrlich cells) [µg/mL] | MIC (HeLa S3 cells) [µg/mL] | T/C (mean survival days) ([1]; 10 mg/kg) [%] | Survival Ratio in Days Shown in Parenthesis ([1]; 10 mg/kg, 32 days) | T/C (mean survival days) ([1]; 20 mg/kg) [%] | Survival Ratio in Days Shown in Parenthesis ([1]; 20 mg/kg, 32 days) | T/C (mean tumor weight) [5] [%] | T/C (mean tumor weight) ([6]; 50 mg/kg, orally) [%] | T/C (mean tumor weight) ([6]; 50 mg/kg, subcutaneously) [%] | T/C (mean tumor weight) ([6]; 100 mg/kg, orally) [%] | T/C (mean tumor weight) (B-16 melanoma cells; [10]) [%] | T/C (mean tumor weight) (B-16 melanoma cells; [11]) [%] | T/C (mean tumor weight) (P-388 ascites cells [7]; 200 mg/kg) [%] | T/C (average tumor weight) ([8]; 100 mg/kg) [%] | T/C (average tumor weight) ([8]; 200 mg/kg) [%] | further results
1 | CCCCCCN1CCN(Cc2ccc(Nc3ncccn3)cc2)C(=O)C1=O [Compound 7] | > 207 | 181 | 159.5 | > 1000 | 0.39 to 0.78 (≈ 1.02 to 2.04 µM) | 0.39 to 0.78 (≈ 1.02 to 2.04 µM) |  |  |  |  |  |  |  |  |  |  |  |  |  | T/C (mean survival days) ([1]; 100 mg/kg): > 183.1%; Survival Ratio in Days Shown in Parenthesis ([1]; 100 mg/kg, 35 days): 3/4; response vs control in vivo at 50 mg/kg ([2]; 168 h, 50 mg/kg, once a day for 7 days): > 187%; T/C (mean survival days) (L-1210 ascites cells [3]; 100 mg/kg, 7 administrations): 168.7%; T/C (mean survival days) (P-388 ascites cells [4]): 166.3%
2 | Nc1ccc(Nc2ccc(CN3CCN(Cc4ccccc4)C(=O)C3=O)cc2)nc1 [Compound 4] |  | 164.3 |  | > 300 | < 0.05 | < 0.05 | > 221 | 4/5 | > 221 | 4/5 | 56.9 | 82 | 15 | 65 | 58 |  |  |  |  | T/C (mean survival days) (L-1210 ascites cells [3]; 100 mg/kg, 3 administrations): 161.9%; T/C (mean tumor weight) (B-16 melanoma cells; 25 mg/kg, subcutaneously, 7 administrations, 19th day): 38%; T/C (mean tumor weight) (B-16 melanoma cells; 50 mg/kg, orally, 9 administrations, 21st day): 60%; T/C (mean tumor weight) (B-16 melanoma cells; 50* mg/kg, orally, 7 administrations, 19th day, in dimethylsulfoxide-propylene glycol (1:1)): 71%; T/C (mean tumor weight) (P-388 ascites cells [7]; 50 mg/kg): 79%
3 | Nc1ccc(Nc2ccc(CN3CCN(Cc4ccccc4)C(=O)C3=O)cc2)nc1Cl [Compound 41] |  |  |  | > 200 | < 0.05 | < 0.05 | > 193 | 1/5 | > 218 | 4/5 |  | 78 | 54 |  | 88 | 43 | 67 | 65.9 | 43.4 | response vs control in vivo at 50 mg/kg ([2]; 96 h, 50* mg/kg, once a day for 4 days): 195%; T/C (mean survival days) (L-1210 ascites cells [3]; 20 mg/kg, 7 administrations): 236%; T/C (mean tumor weight) (B-16 melanoma cells; 50 mg/kg, subcutaneously, 3 administrations, 19th day): 37%
4 | O=C1C(=O)N(Cc2ccc(Nc3ncccn3)cc2)CCN1Cc1ccccc1 [Compound 13] | > 177 | 240.5 | 229 | > 1000 | 0.1 (≈ 0.258 µM) | 0.1 (≈ 0.258 µM) |  |  |  |  | 32.4 |  | 54 | 48 | 62 | 40 | 49 | 73.2 | 67.1 | T/C (mean survival days) ([1]; 50 mg/kg): > 204%; Survival Ratio in Days Shown in Parenthesis ([1]; 50 mg/kg, 32 days): 4/5; T/C (mean survival days) (L-1210 ascites cells [3]; 100 mg/kg, 6 administrations): 150%; T/C (mean tumor weight) ([6]; 200 mg/kg, orally): 26%; T/C (mean tumor weight) (B-16 melanoma cells; 200 mg/kg, orally, 9 administrations, 21st day): 23%; T/C (mean tumor weight) (B-16 melanoma cells; 50* mg/kg, subcutaneously, 7 administrations, 19th day, in dimethylsulfoxide-propylene glycol (1:1)): 88%; T/C Survival Days (L-1210 ascites cells [9]; 50 mg/kg): 120.0%; T/C Tumor Weight (L-1210 ascites cells [9]; 50 mg/kg): 156.6%; T/C Survival Days (L-1210 ascites cells [9]; 100 mg/kg): 194.4%; T/C Tumor Weight (L-1210 ascites cells [9]; 100 mg/kg): 2.6%; T/C Survival Days (L-1210 ascites cells [9]; 250 mg/kg): 127.8%; T/C Tumor Weight (L-1210 ascites cells [9]; 250 mg/kg): 0%; T/C (mean tumor weight) (P-388 ascites cells [7]; 60* mg/kg, solution in dimethylsulfoxide-propylene glycol-phosphate buffer (1:2:1)): 25%
